From article PMC5428354, “Screening of a natural compound library identifies emodin, a natural compound from Rheum palmatum Linn that inhibits DPP4” (PeerJ, 2017) come the findings set out here.

“And” between values parts separate entries of the source, which are not always exact repeats. Equal entries are not always repeated. Where two headings read alike, the source gives them in different places. Bounds are passed on as bounds.

Holding throughout (format): biochemical
One assay has as its target DPP8 (Homo sapiens, UniProt Q6V1X1). As to the kind of experiment: DPP8 activity assay (BPS Bioscience kit).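 On DPP8 assay, Emission (450 nm): fluorescence read with excitation at 365 nm.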 Particulars: 100 µM, Exp #1-#5. As for the experimental part:
A DPP8 assay kit was purchased from BPS Bioscience (Cat# 800208), and the assay protocol was followed to test for inhibitory activity on DPP8. Briefly, DPP substrate 1 was diluted to make a 100 µM stock solution, and DPP8 protein was diluted in DPP assay buffer to 2 ng/µl (20 ng/reaction). For the tested compounds, 10 µl of diluted DPP8 protein, 5 µl of diluted DPP substrate 1, 84 µl of DPP assay buffer and 1 µl of inhibitor were addedinto the assay system for a total volume of 100 µl. The reaction mixtures were prepared in duplicate on a 96-well plate and incubated at room temperature for 10 min. […]

Another assay addresses T1, DPP9 (Homo sapiens, UniProt Q86TI2).
T1 construct: purchased BPS Bioscience 800209
As to the kind of experiment: DPP9 activity assay (BPS Bioscience kit).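 On DPP9 assay, Emission (450 nm): 20 ng DPP9 per 100 µl reaction with DPP substrate 1.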 Particulars: 100 µM, Well #1-#3.

A further assay addresses DPP4 (Homo sapiens, UniProt P27487). As to the kind of experiment: DPP4 activity assay (DPP4 inhibitor screening assay kit, Cayman).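 On all read-outs here: fluorescence read at excitation 360 nm and emission 460 nm after the enzyme reaction ran 30 min at 37 °C in a 96-well plate.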 The settings on record: for remaining activity at 10 µM: 0.5 h, control mean 100.0. Also on record: purchased Cayman Chemical, Ann Arbor, MI, USA.

Sequence of DPP8 (Q6V1X1 whole entry): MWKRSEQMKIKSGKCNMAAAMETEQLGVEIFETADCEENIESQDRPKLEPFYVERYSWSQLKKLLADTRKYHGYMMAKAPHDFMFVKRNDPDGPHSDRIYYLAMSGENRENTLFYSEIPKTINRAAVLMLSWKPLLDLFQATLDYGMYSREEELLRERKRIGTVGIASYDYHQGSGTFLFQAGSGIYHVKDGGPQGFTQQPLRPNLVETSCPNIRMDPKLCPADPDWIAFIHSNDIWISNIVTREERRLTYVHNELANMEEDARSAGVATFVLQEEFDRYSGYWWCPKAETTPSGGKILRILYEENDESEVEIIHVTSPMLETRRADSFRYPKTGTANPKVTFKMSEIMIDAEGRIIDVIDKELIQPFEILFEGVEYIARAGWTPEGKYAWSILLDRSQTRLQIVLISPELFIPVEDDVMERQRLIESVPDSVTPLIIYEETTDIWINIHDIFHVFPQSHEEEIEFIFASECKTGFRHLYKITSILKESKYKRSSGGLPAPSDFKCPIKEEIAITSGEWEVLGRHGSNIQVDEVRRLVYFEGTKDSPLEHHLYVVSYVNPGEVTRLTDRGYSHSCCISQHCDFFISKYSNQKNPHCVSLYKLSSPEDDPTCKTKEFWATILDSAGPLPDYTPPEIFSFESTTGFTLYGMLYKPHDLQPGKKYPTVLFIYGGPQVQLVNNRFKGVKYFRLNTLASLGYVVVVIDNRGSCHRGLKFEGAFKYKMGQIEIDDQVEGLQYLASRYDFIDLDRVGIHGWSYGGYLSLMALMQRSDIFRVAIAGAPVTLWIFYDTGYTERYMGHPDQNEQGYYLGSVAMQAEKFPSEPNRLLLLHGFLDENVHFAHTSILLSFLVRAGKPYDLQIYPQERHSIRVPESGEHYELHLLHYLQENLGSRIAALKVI
Sequence of DPP4 (P27487 whole entry): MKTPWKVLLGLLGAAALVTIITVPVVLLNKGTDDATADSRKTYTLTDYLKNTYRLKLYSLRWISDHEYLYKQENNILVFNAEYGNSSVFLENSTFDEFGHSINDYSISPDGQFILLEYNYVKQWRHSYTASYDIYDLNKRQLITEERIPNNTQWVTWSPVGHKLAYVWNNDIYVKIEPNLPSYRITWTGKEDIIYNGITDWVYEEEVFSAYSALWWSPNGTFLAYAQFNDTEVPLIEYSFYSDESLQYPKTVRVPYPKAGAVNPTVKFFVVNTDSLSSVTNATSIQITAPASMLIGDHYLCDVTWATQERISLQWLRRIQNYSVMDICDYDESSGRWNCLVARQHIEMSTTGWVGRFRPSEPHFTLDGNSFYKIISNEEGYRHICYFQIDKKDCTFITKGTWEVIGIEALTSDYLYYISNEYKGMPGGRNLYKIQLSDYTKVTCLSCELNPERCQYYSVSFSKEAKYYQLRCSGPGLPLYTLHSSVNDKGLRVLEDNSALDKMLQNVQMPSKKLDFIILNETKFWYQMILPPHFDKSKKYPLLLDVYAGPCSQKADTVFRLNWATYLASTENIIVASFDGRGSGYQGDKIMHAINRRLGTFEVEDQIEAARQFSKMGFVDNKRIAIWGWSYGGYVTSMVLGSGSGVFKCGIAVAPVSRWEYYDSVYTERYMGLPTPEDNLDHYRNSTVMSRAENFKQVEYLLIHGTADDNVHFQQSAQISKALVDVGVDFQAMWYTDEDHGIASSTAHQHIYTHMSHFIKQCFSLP
T1 sequence (Q86TI2 whole entry): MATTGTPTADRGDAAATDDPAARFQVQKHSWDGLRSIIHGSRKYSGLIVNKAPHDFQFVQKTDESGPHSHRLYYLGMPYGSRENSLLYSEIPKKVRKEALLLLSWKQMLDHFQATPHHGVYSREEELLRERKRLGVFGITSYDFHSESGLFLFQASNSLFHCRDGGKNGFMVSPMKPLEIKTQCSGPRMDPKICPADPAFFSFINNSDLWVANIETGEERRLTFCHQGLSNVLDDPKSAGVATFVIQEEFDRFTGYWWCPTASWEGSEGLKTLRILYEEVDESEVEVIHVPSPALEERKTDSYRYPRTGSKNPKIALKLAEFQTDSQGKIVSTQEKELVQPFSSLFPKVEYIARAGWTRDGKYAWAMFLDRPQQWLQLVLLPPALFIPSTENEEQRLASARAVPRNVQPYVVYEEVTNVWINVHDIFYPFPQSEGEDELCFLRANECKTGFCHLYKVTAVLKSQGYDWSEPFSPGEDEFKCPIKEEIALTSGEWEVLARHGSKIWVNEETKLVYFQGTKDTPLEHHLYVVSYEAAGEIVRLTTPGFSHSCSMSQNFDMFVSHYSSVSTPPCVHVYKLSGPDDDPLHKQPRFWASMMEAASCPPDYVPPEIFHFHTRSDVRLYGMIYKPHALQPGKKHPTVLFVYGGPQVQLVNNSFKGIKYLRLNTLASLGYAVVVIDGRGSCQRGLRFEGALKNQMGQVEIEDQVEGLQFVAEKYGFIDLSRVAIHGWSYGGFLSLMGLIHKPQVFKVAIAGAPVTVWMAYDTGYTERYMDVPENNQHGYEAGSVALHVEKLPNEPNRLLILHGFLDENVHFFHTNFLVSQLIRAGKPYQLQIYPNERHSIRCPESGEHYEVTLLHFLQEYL

Regarding `Cc1cc(O)c2c(c1)C(=O)c1cccc(O)c1C2=O` [Chrysophanol], the “DPP8 assay, Emission (450 nm)” value on DPP8 was 27057 and 31330 and 23865 and 45793 and 40995. In addition, the DPP8 activity at DPP8 (DMSO = Ctrl) was 77.8 % of Ctrl and 97.3 % of Ctrl and 112.7 % of Ctrl and 85.8 % of Ctrl and 86.9 % of Ctrl. Besides, at DPP9, the “DPP9 assay, Emission (450 nm)” value is 43157 and 48875 and 45154. The DPP9 activity at DPP9 (DMSO = Ctrl) is 88.6 % of Ctrl and 100.3 % of Ctrl and 92.7 % of Ctrl. The remaining activity at 10 µM at DPP4 (Figure 1A raw data, read-out: DPP4 activity in library screen, Exp 1) was determined as 64.4%; on DPP4 (Figure 1A raw data, read-out: DPP4 activity in library screen, Exp 2), 60%; on DPP4 (Figure 1A raw data, read-out: DPP4 activity in library screen, Exp 3), 75%; at DPP4 (mean of Exp 1-3, read-out: DPP4 activity in library screen, Mean), 66.5%. The IC50 (commonly the midpoint of a concentration-inhibition curve) at DPP4 (in vitro, means ± SE, read-out: IC50 of DPP4 Inhibition) is greater than 100 µM.
